From PubChem BioAssay (NCI)
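How tested: cells in 96-well plates exposed to compound for 48 hours at five concentrations. The concentration for 50% growth inhibition is given as GI50. The concentration for full growth arrest is given as TGI.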

How the values were obtained:
Assay in all cases: NCI tumour cell line growth inhibition, 48 h
COLO 205 colon = test system: COLO 205 colon
UACC-257 melanoma = test system: UACC-257 melanoma
UO-31 renal = test system: UO-31 renal
SW-620 colon = test system: SW-620 colon
SF-539 CNS = test system: SF-539 CNS
NCI-H23 lung = test system: NCI-H23 lung
A549 NSCLC = test system: A549 NSCLC
MCF7 breast = test system: MCF7 breast
T-47D breast = test system: T-47D breast
HT29 colon = test system: HT29 colon
A498 renal = test system: A498 renal
DU-145 prostate = test system: DU-145 prostate
HCC-2998 colon = test system: HCC-2998 colon
OVCAR-3 ovarian = test system: OVCAR-3 ovarian
SK-MEL-2 melanoma = test system: SK-MEL-2 melanoma
SK-MEL-5 melanoma = test system: SK-MEL-5 melanoma
NCI/ADR-RES ovarian = test system: NCI/ADR-RES ovarian
BT-549 breast = test system: BT-549 breast
OVCAR-8 ovarian = test system: OVCAR-8 ovarian
NCI-H460 lung = test system: NCI-H460 lung
SF-268 CNS = test system: SF-268 CNS
SK-MEL-28 melanoma = test system: SK-MEL-28 melanoma
CAKI-1 renal = test system: CAKI-1 renal
NCI-H522 lung = test system: NCI-H522 lung
PC-3 prostate = test system: PC-3 prostate
M14 melanoma = test system: M14 melanoma
U251 CNS = test system: U251 CNS
OVCAR-4 ovarian = test system: OVCAR-4 ovarian
ACHN renal = test system: ACHN renal
SF-295 CNS = test system: SF-295 CNS
RPMI-8226 leukemia = test system: RPMI-8226 leukemia
HL-60(TB) leukemia = test system: HL-60(TB) leukemia
LOX IMVI melanoma = test system: LOX IMVI melanoma
RXF 393 renal = test system: RXF 393 renal
K-562 leukemia = test system: K-562 leukemia
UACC-62 melanoma = test system: UACC-62 melanoma
CCRF-CEM leukemia = test system: CCRF-CEM leukemia
NCI-H226 lung = test system: NCI-H226 lung
KM12 colon = test system: KM12 colon
HCT-15 colon = test system: HCT-15 colon
HOP-62 NSCLC = test system: HOP-62 NSCLC
SNB-75 CNS = test system: SNB-75 CNS
MDA-MB-435 = test system: MDA-MB-435
MDA-MB-231 breast = test system: MDA-MB-231 breast
OVCAR-5 ovarian = test system: OVCAR-5 ovarian
786-0 renal = test system: 786-0 renal
MALME-3M melanoma = test system: MALME-3M melanoma
MOLT-4 leukemia = test system: MOLT-4 leukemia
SR leukemia = test system: SR leukemia
HOP-92 NSCLC = test system: HOP-92 NSCLC
IGROV1 ovarian = test system: IGROV1 ovarian
SNB-19 CNS = test system: SNB-19 CNS
SK-OV-3 ovarian = test system: SK-OV-3 ovarian
HCT-116 colon = test system: HCT-116 colon
SN12C renal = test system: SN12C renal

How did the GI50 (COLO 205 colon) turn out when O=C1Nc2ccccc2C12CC(c1ccccc1)=NN2 (stereo not given) was run?
Its GI50 is 4.62 µM.

And the TGI (COLO 205 colon)?
The TGI was 25.9 µM.

And the GI50 (UACC-257 melanoma)?
Its GI50 is 5.02 µM.

And the TGI (UACC-257 melanoma)?
Its TGI is over 100 µM.

What about the GI50 (UO-31 renal) of the same compound?
Its GI50 is 14.6 µM.

And the TGI (UO-31 renal)?
The TGI was over 100 µM.

And the GI50 (SW-620 colon)?
The GI50 was 3.75 µM.

What about the TGI (SW-620 colon) of the same compound?
Its TGI is over 100 µM.

What about the GI50 (SF-539 CNS) of the same compound?
Its GI50 is 3.4 µM.

And the TGI (SF-539 CNS)?
The TGI was 15 µM.

What about the GI50 (NCI-H23 lung) of the same compound?
The GI50 was 9.07 µM.

What about the TGI (NCI-H23 lung) of the same compound?
The TGI was over 100 µM.

What about the GI50 (A549 NSCLC) of the same compound?
The GI50 was 5.11 µM.

And the TGI (A549 NSCLC)?
Its TGI is over 100 µM.

And the GI50 (MCF7 breast)?
Its GI50 is 3.72 µM.

What about the TGI (MCF7 breast) of the same compound?
The TGI was over 100 µM.

And the GI50 (T-47D breast)?
Its GI50 is 6.98 µM.

What about the TGI (T-47D breast) of the same compound?
The TGI was over 100 µM.

And the GI50 (HT29 colon)?
The GI50 was 3.73 µM.

And the TGI (HT29 colon)?
Its TGI is 27.5 µM.

And the GI50 (A498 renal)?
Its GI50 is 1.85 µM.

What about the TGI (A498 renal) of the same compound?
The TGI was 9.24 µM.

What about the GI50 (DU-145 prostate) of the same compound?
Its GI50 is 9.63 µM.

What about the TGI (DU-145 prostate) of the same compound?
The TGI was 51.1 µM.

And the GI50 (HCC-2998 colon)?
Its GI50 is 36.1 µM.

What about the TGI (HCC-2998 colon) of the same compound?
Its TGI is over 100 µM.

And the GI50 (OVCAR-3 ovarian)?
The GI50 was 5.1 µM.

What about the TGI (OVCAR-3 ovarian) of the same compound?
The TGI was 80.7 µM.

And the GI50 (SK-MEL-2 melanoma)?
The GI50 was 5.46 µM.

What about the TGI (SK-MEL-2 melanoma) of the same compound?
Its TGI is 46.5 µM.

What about the GI50 (SK-MEL-5 melanoma) of the same compound?
Its GI50 is 4.81 µM.

What about the TGI (SK-MEL-5 melanoma) of the same compound?
The TGI was over 100 µM.

What about the GI50 (NCI/ADR-RES ovarian) of the same compound?
Its GI50 is 7.49 µM.

And the TGI (NCI/ADR-RES ovarian)?
Its TGI is over 100 µM.

And the GI50 (BT-549 breast)?
Its GI50 is 6.35 µM.

What about the TGI (BT-549 breast) of the same compound?
Its TGI is over 100 µM.

What about the GI50 (OVCAR-8 ovarian) of the same compound?
The GI50 was 9.28 µM.

What about the TGI (OVCAR-8 ovarian) of the same compound?
The TGI was 96.9 µM.

And the GI50 (NCI-H460 lung)?
The GI50 was 3.94 µM.

What about the TGI (NCI-H460 lung) of the same compound?
The TGI was over 100 µM.

What about the GI50 (SF-268 CNS) of the same compound?
The GI50 was 11.9 µM.

What about the TGI (SF-268 CNS) of the same compound?
Its TGI is over 100 µM.

What about the GI50 (SK-MEL-28 melanoma) of the same compound?
Its GI50 is 15.7 µM.

What about the TGI (SK-MEL-28 melanoma) of the same compound?
Its TGI is over 100 µM.

And the GI50 (CAKI-1 renal)?
Its GI50 is 7.57 µM.

What about the TGI (CAKI-1 renal) of the same compound?
Its TGI is over 100 µM.

What about the GI50 (NCI-H522 lung) of the same compound?
Its GI50 is 4.66 µM.

And the TGI (NCI-H522 lung)?
Its TGI is 76 µM.

What about the GI50 (PC-3 prostate) of the same compound?
Its GI50 is 3.89 µM.

And the TGI (PC-3 prostate)?
Its TGI is over 100 µM.

And the GI50 (M14 melanoma)?
The GI50 was 4.9 µM.

What about the TGI (M14 melanoma) of the same compound?
The TGI was 46.3 µM.

And the GI50 (U251 CNS)?
Its GI50 is 5.4 µM.

What about the TGI (U251 CNS) of the same compound?
The TGI was over 100 µM.

And the GI50 (OVCAR-4 ovarian)?
The GI50 was 23.6 µM.

And the TGI (OVCAR-4 ovarian)?
Its TGI is over 100 µM.

And the GI50 (ACHN renal)?
Its GI50 is 6.48 µM.

And the TGI (ACHN renal)?
The TGI was over 100 µM.

And the GI50 (SF-295 CNS)?
The GI50 was 4.84 µM.

What about the TGI (SF-295 CNS) of the same compound?
Its TGI is over 100 µM.

What about the GI50 (RPMI-8226 leukemia) of the same compound?
Its GI50 is 5.53 µM.

What about the TGI (RPMI-8226 leukemia) of the same compound?
Its TGI is 90.5 µM.

What about the GI50 (HL-60(TB) leukemia) of the same compound?
The GI50 was 3.29 µM.

And the TGI (HL-60(TB) leukemia)?
Its TGI is 15.3 µM.

What about the GI50 (LOX IMVI melanoma) of the same compound?
Its GI50 is 6.46 µM.

And the TGI (LOX IMVI melanoma)?
Its TGI is 87.4 µM.

What about the GI50 (RXF 393 renal) of the same compound?
Its GI50 is 3.78 µM.

And the TGI (RXF 393 renal)?
The TGI was 36.6 µM.

What about the GI50 (K-562 leukemia) of the same compound?
Its GI50 is 3.98 µM.

And the TGI (K-562 leukemia)?
The TGI was over 100 µM.

And the GI50 (UACC-62 melanoma)?
The GI50 was 4.38 µM.

And the TGI (UACC-62 melanoma)?
The TGI was over 100 µM.

And the GI50 (CCRF-CEM leukemia)?
Its GI50 is 5.52 µM.

What about the TGI (CCRF-CEM leukemia) of the same compound?
Its TGI is over 100 µM.

And the GI50 (NCI-H226 lung)?
The GI50 was 21.9 µM.

And the TGI (NCI-H226 lung)?
Its TGI is over 100 µM.

What about the GI50 (KM12 colon) of the same compound?
Its GI50 is 4.76 µM.

What about the TGI (KM12 colon) of the same compound?
Its TGI is over 100 µM.

What about the GI50 (HCT-15 colon) of the same compound?
The GI50 was 4.17 µM.

And the TGI (HCT-15 colon)?
The TGI was over 100 µM.

And the GI50 (HOP-62 NSCLC)?
The GI50 was 8.79 µM.

What about the TGI (HOP-62 NSCLC) of the same compound?
Its TGI is over 100 µM.

What about the GI50 (SNB-75 CNS) of the same compound?
The GI50 was 2.98 µM.

And the TGI (SNB-75 CNS)?
The TGI was 59.4 µM.

What about the GI50 (MDA-MB-435) of the same compound?
The GI50 was 1.66 µM.

What about the TGI (MDA-MB-435) of the same compound?
Its TGI is 4.5 µM.

And the GI50 (MDA-MB-231 breast)?
The GI50 was 8.61 µM.

What about the TGI (MDA-MB-231 breast) of the same compound?
Its TGI is 79.7 µM.

What about the GI50 (OVCAR-5 ovarian) of the same compound?
The GI50 was 16.4 µM.

What about the TGI (OVCAR-5 ovarian) of the same compound?
The TGI was 96.1 µM.

What about the GI50 (786-0 renal) of the same compound?
Its GI50 is 6.36 µM.

What about the TGI (786-0 renal) of the same compound?
Its TGI is 65.2 µM.

And the GI50 (MALME-3M melanoma)?
The GI50 was 3.89 µM.

What about the TGI (MALME-3M melanoma) of the same compound?
Its TGI is over 100 µM.

What about the GI50 (MOLT-4 leukemia) of the same compound?
Its GI50 is 8.41 µM.

What about the TGI (MOLT-4 leukemia) of the same compound?
Its TGI is over 100 µM.

And the GI50 (SR leukemia)?
The GI50 was 3.64 µM.

What about the TGI (SR leukemia) of the same compound?
Its TGI is 34.8 µM.

And the GI50 (HOP-92 NSCLC)?
The GI50 was 1.65 µM.

And the TGI (HOP-92 NSCLC)?
The TGI was 9.43 µM.

And the GI50 (IGROV1 ovarian)?
The GI50 was 5.75 µM.

And the TGI (IGROV1 ovarian)?
The TGI was 75.9 µM.

And the GI50 (SNB-19 CNS)?
Its GI50 is 12.7 µM.

And the TGI (SNB-19 CNS)?
The TGI was over 100 µM.

And the GI50 (SK-OV-3 ovarian)?
Its GI50 is 9.12 µM.

And the TGI (SK-OV-3 ovarian)?
The TGI was over 100 µM.

What about the GI50 (HCT-116 colon) of the same compound?
The GI50 was 4.83 µM.

And the TGI (HCT-116 colon)?
The TGI was over 100 µM.

And the GI50 (SN12C renal)?
Its GI50 is 7.73 µM.

What about the TGI (SN12C renal) of the same compound?
The TGI was over 100 µM.
